The subject of one series is human T cells. The note with it: cited from earlier work.
Series [1] deals with HIV-1 JR-CSF. Nature of the series: HIV-1/HCV co-culture co-infection, HIV-1 p24 ELISA. It is filed as cell-based. The protocol: (§1) CD4+ T-lymphocytes and Huh7.5.1 cells uninfected or infected for 3 h as described above were mixed in a single flask and HIV-1 and HCV replication monitored over a period of 3 weeks as described above.
(§2) HIV-1 target cells—CD4+ T-lymphocytes—and HCV target cells—hepatoma cells—were placed in a single chamber (flask), exposed to both HIV-1 and HCV, and viral replication monitored over time by p24 capsid and core ELISAs, respectively.
(§3) CD4+ T-lymphocytes (A) and Huh7.5.1 cells (B) (0.5 x 10^6 cells) (triplicates) were exposed to HIV-1 JR-CSF and HCV JFH-1. Drugs (2 μM) were added 3 h pre-viral exposure (top panels) or 3 days post-viral exposure (bottom panels). Viral replications were monitored by HIV-1 p24 and HCV core ELISAs. C. CD4+ T-lymphocytes (0.5 x 10^6 cells) (triplicates) were exposed to HIV-1 JR-CSF. Drugs were initially added 3 days post-viral exposure (2 μM) and then daily (0.5 μM). Viral replications were monitored by HIV-1 p24 and HCV core ELISAs. […] D. Model for the HIV-1/HCV co-culture system.
A general note: ELISA stands for enzyme-linked immunosorbent assay.

Series [2] relates to HCV JFH-1. The experiment in a line: HIV-1/HCV co-culture co-infection, HCV core ELISA. It counts as cell-based. The protocol:
as §1, §2, §3

Series [3] relates to HCV JFH-1. The experiment in a line: HCV mono-infection of Huh7.5.1 cells, core ELISA. The note with it: Fig 1B. It is filed as cell-based.
The test system of series [4] is HIV-1 JR-CSF. Nature of the series: HIV-1 mono-infection of CD4+ T-lymphocytes, p24 ELISA. It counts as cell-based. The note with it: Fig 1A. The text has this: Hemoglobin determinations at every donation protect the donor from phlebotomy-induced anemia. The donor pool also provides investigators with a mix of gender and minority subjects, and recruitment is ongoing for underrepresented minorities. At the present time, the NBDS has 320 active normal blood donors enrolled. Use of the Normal Blood Donor Service is considered “human subjects” research and each investigator who wants to use the service must submit a protocol to the IRB for review and approval. Dr. Gallay has current IRB approval for the human blood obtained for research described in this manuscript. Protocol No: IRB-15-6552. Full name of the IRB is "Scripps IRB". […] Consent from blood donors was obtained verbally. The authors have no access to identifying donor information for these samples.

Setting [5] is: drug treatments begun 3 h before virus addition.
[6] abbreviates: single dose added 3 days post-infection.

Like-named read-outs stand apart in the source and are kept apart here.

As to `C/C=C/C[C@@H](C)[C@@H](O)[C@H]1C(=O)N[C@@H](CC)C(=O)N(C)CC(=O)N(C)[C@@H]([C@@H](C)CC)C(=O)N[C@@H](C(C)C)C(=O)N(C)[C@@H](CC(C)C)C(=O)N[C@@H](C)C(=O)N[C@H](C)C(=O)N(C)[C@@H](CC(C)C)C(=O)N(C)[C@@H](CC(C)C)C(=O)N(C)[C@@H](C(C)C)C(=O)N1C` [NIM811], the “Cellular toxicity (in words)” value in the series with human T cells (general statement on other CypI, no reference given) is “lack of cellular toxicity”.
For the molecule `COC(=O)N[C@H](C(=O)N1CCC[C@H]1c1nc(-c2ccc(-c3ccc(-c4c[nH]c([C@@H]5CCCN5C(=O)[C@@H](NC(=O)OC)C(C)C)n4)cc3)cc2)c[nH]1)C(C)C` [Daclatasvir, daclatasvir], the “Effect on HIV-1 replication (in words)” value with HIV-1 JR-CSF [1] (setting [5]) was “did not”; in the series on HIV-1 JR-CSF [4] it was “had no effect”. Also, the “Effect on HCV replication (in words)” value in the series with HCV JFH-1 [2] (setting [5]) is given as “completely prevented”; with HCV JFH-1 [2] (setting [6]), “completely eradicated”; with HCV JFH-1 [3], “fully blocked HCV replication”.
Turning to `C/C=C/C[C@@H](C)[C@@H](O)[C@H]1C(=O)N[C@@H](CC)C(=O)N(C)[C@H](SCCN(C)C)C(=O)N(C)[C@@H](CC(C)(C)O)C(=O)N[C@@H](C(C)C)C(=O)N(C)[C@@H](CC(C)C)C(=O)N[C@@H](C)C(=O)N[C@H](C)C(=O)N(C)[C@@H](CC(C)C)C(=O)N(C)[C@@H](CC(C)C)C(=O)N(C)[C@@H](C(C)C)C(=O)N1C` [SCY-635], the “Cellular toxicity (in words)” value in the series with human T cells is “lack of cellular toxicity”.
In the case of `Cc1c(O)cccc1C(=O)N[C@@H](CSc1ccccc1)[C@H](O)CN1C[C@H]2CCCC[C@H]2C[C@H]1C(=O)NC(C)(C)C` [Nelfinavir, nelfinavir], the “Effect on HIV-1 replication (in words)” value is listed as “totally prevented HIV-1 replication” with HIV-1 JR-CSF [1] (setting [5]), “completely eradicated” in the series on HIV-1 JR-CSF [1] (setting [6]) and “totally blocked replication” in the series on HIV-1 JR-CSF [4]. The “Effect on HCV replication (in words)” value with HCV JFH-1 [2] (setting [5]) is listed as “did not”; with HCV JFH-1 [3] it was “had no effect”.

The values above are taken from paper PMC4532424, “The Novel Cyclophilin Inhibitor CPI-431-32 Concurrently Blocks HCV and HIV-1 Infections via a Similar Mechanism of Action” (PLoS ONE, 2015).
